According to paper PMC3474971 (2012):

Tests used:
[1] = test system: theophylline aptamer (RNA, aptamer) GGUGAUACCAGCAUCGUCUUGAUGCCCUUGGCAGCACC; assay: fluorescence change of staining dye; conditions: 140 mM NaCl, 5 mM KCl, 5 mM MgCl2, 20 mM Tris-Cl pH 7.5, 25 °C, aptamer 10 nM
[2] = test system: ATP aptamer (DNA, aptamer) ATAGCGGAGGAAGGATACCTGGGGGAGTATAT; assay: fluorescence of dye-aptamer complex; conditions: 300 mM NaCl, 5 mM MgCl2, 10 mM KCl; 20 mM Tris-Cl pH 7.5, 25 °C; dye 25 nM, aptamer 10 nM
[3] = test system: thrombin-binding aptamer (TBA) (DNA, G4) GGTTGGTGTGGTTGG; assay: fluorescence of dye-aptamer complex; conditions: 300 mM NaCl, 5 mM MgCl2, 10 mM KCl; 20 mM Tris-Cl pH 7.5, 25 °C; dye 25 nM, aptamer 10 nM
[4] = test system: theophylline aptamer (RNA, aptamer) GGUGAUACCAGCAUCGUCUUGAUGCCCUUGGCAGCACC; assay: fluorescence of dye-aptamer complex; conditions: 140 mM NaCl, 5 mM KCl, 5 mM MgCl2; 20 mM Tris-Cl pH 7.5, 25 °C; dye 25 nM, aptamer 10 nM
[5] = test system: ATP aptamer (DNA, aptamer) ATAGCGGAGGAAGGATACCTGGGGGAGTATAT; assay: fluorescence change of staining dye; conditions: 300 mM NaCl, 5 mM MgCl2, 10 mM KCl, 20 mM Tris-Cl pH 7.5, 25 °C, Hoechst 33258 25 nM as indicator, aptamer 10 nM

For `Cn1c(=O)c2[nH]cnc2n(C)c1=O`, the binding ([1]; TO or SYBR Green 25 nM as indicator) was “yes”.

With `CN1CCN(c2ccc3nc(-c4ccc5nc(-c6ccc(O)cc6)[nH]c5c4)[nH]c3c2)CC1` the binding [2] was “yes”.

With `C[n+]1c(C=C2C=CN(CCC[N+](C)(C)CCC[N+](C)(C)CCCN3C=CC(=Cc4oc5ccccc5[n+]4C)c4ccccc43)c3ccccc32)oc2ccccc21` the binding [3] was “yes” and the binding [2] was “yes”.

`CN1C(=Cc2cc[n+](C)c3ccccc23)Sc2ccccc21` was tested, and the binding [4] was “yes” and the binding [3] was “yes”.

For `Cn1c(=O)c2c(ncn2C)n(C)c1=O`, the binding ([1]; TO 25 nM as indicator, huge excess of caffeine) was “no”.

`CCCN(CCCN(C)C)c1cc(C=C2Sc3ccccc3N2C)c2ccccc2[n+]1-c1ccccc1` was tested, and the binding [4] was “yes” and the binding [3] was “yes”.

With `Nc1ncnc2c1ncn2[C@@H]1O[C@H](COP(=O)(O)OP(=O)(O)OP(=O)(O)O)[C@@H](O)[C@H]1O` the binding [5] was “yes”.

With `Nc1nc2c(ncn2[C@@H]2O[C@H](COP(=O)(O)OP(=O)(O)OP(=O)(O)O)[C@@H](O)[C@H]2O)c(=O)[nH]1` the binding ([5]; ~5% change, within error) was “no”.
